Results reported in ChEMBL document CHEMBL1121775, “Synthesis and antimalarial effects of N2-aryl-N4-[(dialkylamino)alkyl]- and N4-aryl-N2-[(dialkylamino)alkyl]-2,4-quinazolinediamines” (J Med Chem, 1981).
Several values for one entry are separate records, joined by “and”; a condition that tells them apart may be missing. Identical values can stand only once.

Tests used:
[1] = system: Mus musculus; assay: Antimalarial effect against trophozoite-induced Plasmodium berghei in mice (Mus musculus) at dosage of 320 mg/kg after subcutaneous administration; No. of mice (Mus musculus) surviving after 60 days 2; format: functional
[2] = system: Mus musculus; assay: Antimalarial effect against trophozoite induced Plasmodium berghei in mice (Mus musculus) at dosage of 160 mg/kg after subcutaneous administration; No. of mice (Mus musculus) surviving after 60 days 1; format: functional
[3] = system: Plasmodium berghei; assay: Antimalarial effect against trophozoite-induced Plasmodium berghei in mice (Mus musculus) at 80 mg/kg subcutaneous dose; format: functional
[4] = system: Plasmodium berghei; assay: (§1) Antimalarial effect against trophozoite-induced Plasmodium berghei in mice (Mus musculus) at 640 mg/kg subcutaneous dose; format: functional
[5] = system: Mus musculus; assay: Number of mice cured at a subcutaneous dose of 320 mg/kg.; format: functional
[6] = system: Mus musculus; assay: Antimalarial effect against trophozoite-induced Plasmodium berghei in mice (Mus musculus) at dosage of 640 mg/kg after subcutaneous administration; No. of mice (Mus musculus) surviving after 60 days 4; format: functional
[7] = system: Plasmodium berghei; assay: Antimalarial effect against trophozoite-induced Plasmodium berghei in mice (Mus musculus) after 40 mg/kg subcutaneous dose; format: functional
[8] = system: Mus musculus; assay: Number of mice cured at a dose of 640 mg/kg sc; format: functional; conditions: route subcutaneous
[9] = system: Mus musculus; assay: Number of mice cured at a subcutaneous dose of 160 mg/kg.; format: functional
[10] = system: Plasmodium berghei; assay: Antimalarial effect against trophozoite-induced Plasmodium berghei in mice (Mus musculus) after 20 mg/kg subcutaneous dose; format: functional
[11] = system: Plasmodium berghei; assay: Antimalarial activity against trophozoite-induced Plasmodium berghei in mice (Mus musculus) at 160 mg/kg subcutaneous dose; format: functional
[12] = The ratio of SD90 of the quinine hydrochloride, to the SD90 of the test substance for the Dose of 20 mg/kg; format: functional
[13] = system: Plasmodium berghei; assay: Antimalarial activity against trophozoite-induced Plasmodium berghei in mice (Mus musculus); format: functional
[14] = system: Plasmodium berghei; assay: Antimalarial effect against trophozoite-induced Plasmodium berghei in mice (Mus musculus) at 320 mg/kg subcutaneous dose; format: functional
[15] = The ratio of SD90 of the quinine hydrochloride, to the SD90 of the test substance for the Dose of 68 mg/kg; format: functional
[16] = system: Mus musculus; assay: Antimalarial effect against trophozoite induced Plasmodium berghei in mice (Mus musculus) at dosage of 640 mg/kg after subcutaneous administration; No. of mice (Mus musculus) surviving after 60 days 2; format: functional
[17] = system: Mus musculus; assay: Number of mice cured at a subcutaneous dose of 640 mg/kg.; format: functional
[18] = system: Mus musculus; assay: Antimalarial effect against trophozoite induced Plasmodium berghei in mice (Mus musculus) at dosage of 160 mg/kg after subcutaneous administration.; format: functional
[19] = system: Plasmodium berghei; assay: Antimalarial effect against trophozoite-induced Plasmodium berghei in mice (Mus musculus) at 160 mg/kg subcutaneous dose; format: functional
[20] = The ratio of SD90 of the quinine hydrochloride, to the SD90 of the test substance for the Dose of […] mg/kg; format: functional
[21] = system: Mus musculus; assay: Number of mice cured at a dose of 320 mg/kg sc; format: functional; conditions: route subcutaneous
[22] = The ratio of SD90 of the quinine hydrochloride, to the SD90 of the test substance for the Dose of 70 mg/kg; format: functional
[23] = system: Plasmodium berghei; assay: as §1; format: functional; conditions: 640 mg/kg
[24] = system: Mus musculus; assay: Antimalarial effect against trophozoite-induced Plasmodium berghei in mice (Mus musculus) at dosage of 160 mg/kg after subcutaneous administration; No. of mice (Mus musculus) surviving after 60 days 3; format: functional
[25] = system: Mus musculus; assay: Antimalarial effect against trophozoite-induced Plasmodium berghei in mice (Mus musculus) at dosage of 320 mg/kg after subcutaneous administration; No. of mice (Mus musculus) surviving after 60 days 4; format: functional
[26] = The ratio of SD90 of the quinine hydrochloride, to the SD90 of the test substance for the Dose of 8.5 mg/kg; format: functional
[27] = The ratio of SD90 of the quinine hydrochloride, to the SD90 of the test substance for the Dose of 38 mg/kg; format: functional
[28] = system: Mus musculus; assay: Antimalarial effect against trophozoite induced Plasmodium berghei in mice (Mus musculus) at dosage of 320 mg/kg after subcutaneous administration; No. of mice (Mus musculus) surviving after 60 days 3; format: functional
[29] = system: Mus musculus; assay: Number of toxic deaths at a dose of 320 mg/kg; format: toxicity, organism-based; parameters: dose 320 mg/kg; conditions: in vivo
[30] = system: Mus musculus; assay: Number of toxic deaths at a dose of 640 mg/kg; format: toxicity, organism-based; parameters: dose 640 mg/kg; conditions: in vivo
[31] = The ratio of SD90 of the quinine hydrochloride, to the SD90 of the test substance for the Dose of 45 mg/kg; format: functional
[32] = system: Mus musculus; assay: Antimalarial effect against trophozoite-induced Plasmodium berghei in mice (Mus musculus) at dosage of 320 mg/kg after subcutaneous administration;; format: functional
[33] = system: Mus musculus; assay: Number of toxic deaths at a dose of 160 mg/kg; format: toxicity, organism-based; parameters: dose 160 mg/kg; conditions: in vivo

SMILES | MST [3] [days] | MST [4] [days] | No. of survivals [5] | MST ([7]; 40 mg/kg) | No. of survivals [9] | MST [10] [days] | MST [11] [days] | No. of survivals [8] | SD90 [13] [mg/kg/day] | MST [14] [days] | MST ([19]; 160 mg/kg) | also measured
CCN(CC)C1CCC(Nc2nc(Nc3ccc(Cl)c(Cl)c3)nc3ccc(Cl)cc23)CC1 (stereo not drawn) | 14.9 | 18.4 | 2 | 13.3 days and 12.9 days | 1 | 1.3 | 12.9 | – | – | – | – | MST [1]: 27.2 days; MST [2]: 13.9 days; MST [6]: 12.9 days; No. of survivals ([8]; 640 mg/kg): 4 and 3
CN1CCCC1CCNc1nc(Nc2cc(Cl)cc(Cl)c2)nc2ccc(Cl)cc12 (stereo not drawn) | 5 | – | 1 | 3.6 days and 4 days | 1 | 0.6 | – | 5 | 20 | 21.1 | – | Ratio [12]: 3.8; MST ([11]; 160 mg/kg): 11.1 days and 10.3 days
Clc1ccc(Nc2nc(NCCN3CCCC3)c3ccccc3n2)cc1 | 1.1 | 25.4 | – | 0.7 days and 1.1 days | – | 0.1 | – | – | 68 | 18.2 | – | Ratio [15]: 1.1; MST [16]: 24.6 days; No. of cured ([17]; 640 mg/kg): 3 and 1; MST [18]: 6.1 days; MST [19]: 6.7 days
CCN(CC)C1CCC(Nc2nc(Nc3cc(Br)cc(Br)c3)nc3ccccc23)CC1 (stereo not drawn) | 4.3 | – | – | 1.1 days and 0.7 days | – | 0.3 | – | – | 3.3 | 26.2 | 8.7 days and 9.1 days | Ratio [20]: 2.3; No. of cured [17]: 5; No. of cured [21]: 2
Clc1ccc(Nc2nc(NCCN3CCCC3)c3ccccc3n2)cc1Cl | 3.1 | – | – | 2.1 days and 2.3 days | – | 0.3 | – | – | 70 | 9.3 | 6.5 days and 7.1 days | Ratio [22]: 1.1; MST [23]: 15.9 days and 13.7 days
CN(C)C1CCC(Nc2nc(Nc3ccc(Cl)c(Cl)c3)nc3ccccc23)CC1 (stereo in doubt; 23) | – | – | – | 9.7 days and 9.9 days | – | – | – | 5 | 8.5 | – | – | MST [24]: 25.4 days; MST [25]: 25.9 days; Ratio [26]: 8.8; No. of survivals ([9]; 160 mg/kg): 3; MST ([10]; 20 mg/kg): 0.9 days; MST ([11]; 160 mg/kg): 27.4 days
CCN1CCCC(Nc2nc(Nc3ccc(Cl)cc3)nc3ccccc23)C1 (stereo not drawn) | 3 | – | – | 0.4 days and 0.6 days | – | 0.2 | – | – | 38 | 20 | 10.6 days and 11.4 days | MST ([4]; 640 mg/kg): 28.3 days and 28.8 days; Ratio [27]: 2; No. of cured [17]: 3
CCN1CCC(CNc2nc(Nc3ccc(C(F)(F)F)cc3)c3ccccc3n2)CC1 | – | 21.9 | 3 | – | 1 | 0.3 | 3.9 | 4 | – | 8.9 | – | MST ([3]; 80 mg/kg): 0.5 days and 0.7 days; MST [7]: 0.5 days; MST [28]: 9.4 days; MST [19]: 7.3 days
CCOc1ccc(Nc2nc(NCCN(CC)CC)c3cc(Cl)ccc3n2)cc1CN(CC)CC | 3.2 | – | – | – | – | 0.2 | 4.3 | – | 45 | – | – | No. of toxic deaths [29]: 4; No. of toxic deaths [30]: 5; MST [7]: 0.8 days; Ratio [31]: 1.6; MST [32]: 5.8 days; No. of toxic deaths [33]: 1
